Assays:
HBV = assay: anti HBV activity, HepG2.117 cell line, intracellular HBV DNA by realtime PCR; format: cell-based; details: Hepatitis B virus, HepG2.117, 72 h, HepG2.117 cell line (Tet-off), 3 days of treatment, intracellular HBV DNA quantified by realtime PCR; read-out: HBV-AVE-HepG2.117 EC50
Method in brief: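 HepG2.117 cells, a Tet-off line that replicates HBV without doxycycline, were induced and then treated in duplicate with serially diluted compound. After 3 days, intracellular HBV DNA was quantified by real-time PCR with an HBV-specific primer set and probe.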

[1] = Cytotoxicity in HepG2 cells, Resazurin assay; details: human, HepG2 cells, TOX-HepG2-4 d CC50 (μM), HepG2 cells incubated for 4 days, viability by Resazurin assay

Compound	EC50 (HBV) [µM]	CC50 at 4 days [1] [µM]
Cn1cc2c(c1C(=O)Nc1ccc(F)c(F)c1)OC[C@H](Cc1cccnc1)NS2(=O)=O [Compound 38, (3S)—N-(3,4-difluorophenyl)-7-methyl-1,1-dioxo-3-(3-pyridylmethyl)-3,4-dihydro-2H-pyrrolo[3,4-b][1,4,5]oxathiazepine-6-carboxamide]	0.005	> 25
Cn1cc(C2COc3c(cn(C)c3C(=O)Nc3ccc(F)c(F)c3)S(=O)(=O)N2)cn1 (stereo not shown) [Compound 43, N-(3,4-difluorophenyl)-7-methyl-3-(1-methylpyrazol-4-yl)-1,1-dioxo-3,4-dihydro-2H-pyrrolo[3,4-b][1,4,5]oxathiazepine-6-carboxamide]	0.056	> 25
CC(C)[C@H]1COc2c(ccc(F)c2C(=O)Nc2ccc(F)c(F)c2)S(=O)(=O)N1 [Compound 44, (3S)—N-(3,4-difluorophenyl)-7-fluoro-3-isopropyl-1,1-dioxo-3,4-dihydro-2H-5,1λ^6,2-benzoxathiazepine-6-carboxamide]	0.17	> 25
CC(C)[C@H]1COc2c(ccc(F)c2C(=O)Nc2ccc(F)c(C#N)c2)S(=O)(=O)N1 [Compound 45, (3S)—N-(3-cyano-4-fluoro-phenyl)-7-fluoro-3-isopropyl-1,1-dioxo-3,4-dihydro-2H-5,1λ^6,2-benzoxathiazepine-6-carboxamide]	0.23	> 25
Cc1ccc(NC(=O)c2c(F)ccc3c2OC[C@@H](C(C)C)NS3(=O)=O)cc1F [Compound 46, (3R)-7-fluoro-N-(3-fluoro-4-methyl-phenyl)-3-isopropyl-1,1-dioxo-3,4-dihydro-2H-5,1λ^6,2-benzoxathiazepine-6-carboxamide]	0.33	> 25
Cn1cc2c(c1C(=O)Nc1ccc(F)c(F)c1)CCC(C(F)(F)F)NS2(=O)=O (stereo not shown) [Compound 47, N-(3,4-difluorophenyl)-7-methyl-1,1-dioxo-3-(trifluoromethyl)-2,3,4,5-tetrahydropyrrolo[3,4-f]thiazepine-6-carboxamide]	0.017	> 25
CC(C)[C@@H]1COc2c(ccc(F)c2C(=O)Nc2ccc(F)c(F)c2)S(=O)(=O)N1 [Compound 48, (3R)—N-(3,4-difluorophenyl)-7-fluoro-3-isopropyl-1,1-dioxo-3,4-dihydro-2H-5,1λ^6,2-benzoxathiazepine-6-carboxamide]	0.084	> 25
CC(C)[C@@H]1COc2c(ccc(F)c2C(=O)Nc2ccc(F)c(C#N)c2)S(=O)(=O)N1 [Compound 49, (3R)—N-(3-cyano-4-fluoro-phenyl)-7-fluoro-3-isopropyl-1,1-dioxo-3,4-dihydro-2H-5,1λ^6,2-benzoxathiazepine-6-carboxamide]	0.31	> 25
Cn1cc2c(c1C(=O)Nc1ccnc(C(F)(F)F)c1)C=CC(C(F)(F)F)NS2(=O)=O (stereo not shown) [Compound 58, 7-methyl-1,1-dioxo-3-(trifluoromethyl)-N-[2-(trifluoromethyl)-4-pyridyl]-2,3-dihydropyrrolo[3,4-f]thiazepine-6-carboxamide]	0.29	> 25
Cn1cc2c(c1C(=O)Nc1ccc(F)c(F)c1)OC[C@@H](C(F)(F)F)NS2(=O)=O [Compound 61, (3S)—N-(3,4-difluorophenyl)-7-methyl-1,1-dioxo-3-(trifluoromethyl)-3,4-dihydro-2H-pyrrolo[3,4-b][1,4,5]oxathiazepine-6-carboxamide]	0.074	> 25
CO[C@H](C)[C@H]1COc2c(cn(C)c2C(=O)Nc2ccc(F)c(F)c2)S(=O)(=O)N1 [Compound 62, (3R)—N-(3,4-difluorophenyl)-3-[(1R)-1-methoxyethyl]-7-methyl-1,1-dioxo-3,4-dihydro-2H-pyrrolo[3,4-b][1,4,5]oxathiazepine-6-carboxamide]	0.009	> 25
Cn1cc2c(c1C(=O)Nc1ccc(F)c(F)c1)OC[C@@H]([C@@H](O)c1ccccc1)NS2(=O)=O [Compound 63, (3S)—N-(3,4-difluorophenyl)-3-[(S)-hydroxy(phenyl)methyl]-7-methyl-1,1-dioxo-3,4-dihydro-2H-pyrrolo[3,4-b][1,4,5]oxathiazepine-6-carboxamide]	0.24	> 25
C[C@H](O)[C@H]1COc2c(cn(C)c2C(=O)Nc2ccc(F)c(C(F)F)c2)S(=O)(=O)N1 [Compound 64, (3R)—N-[3-(difluoromethyl)-4-fluoro-phenyl]-3-[(1S)-1-hydroxyethyl]-7-methyl-1,1-dioxo-3,4-dihydro-2H-pyrrolo[3,4-b][1,4,5]oxathiazepine-6-carb oxamide]	0.008	> 25
C[C@H](O)[C@H]1COc2c(cn(C)c2C(=O)Nc2ccc(F)c(C#N)c2)S(=O)(=O)N1 [Compound 65, (3R)—N-(3-cyano-4-fluoro-phenyl)-3-[(1S)-1-hydroxyethyl]-7-methyl-1,1-dioxo-3,4-dihydro-2H-pyrrolo[3,4-b][1,4,5]oxathiazepine-6-carboxamide]	0.007	> 25
C[C@H](O)[C@H]1COc2c(cn(C)c2C(=O)Nc2ccnc(Br)c2)S(=O)(=O)N1 [Compound 66, (3R)—N-(2-bromo-4-pyridyl)-3-[(1S)-1-hydroxyethyl]-7-methyl-1,1-dioxo-3,4-dihydro-2H-pyrrolo[3,4-b][1,4,5]oxathiazepine-6-carboxamide]	0.047	> 25
CC1CNc2c(cn(C)c2C(=O)Nc2ccc(F)c(F)c2)S(=O)(=O)N1 (stereo not shown) [Compound 67, N-(3,4-difluorophenyl)-3,7-dimethyl-1,1-dioxo-2,3,4,5-tetrahydropyrrolo[3,4-f][1,2,5]thiadiazepine-6-carboxamide]	0.069	> 25
C[C@@H](O)[C@H]1C=Cc2c(cn(C)c2C(=O)Nc2ccc(F)c(F)c2)S(=O)(=O)N1 [Compound 69, (3R)—N-(3,4-difluorophenyl)-3-[(1R)-1-hydroxyethyl]-7-methyl-1,1-dioxo-2,3-dihydropyrrolo[3,4-f]thiazepine-6-carboxamide]	0.033	> 25
C[C@@H](O)[C@H]1CCc2c(cn(C)c2C(=O)Nc2ccc(F)c(F)c2)S(=O)(=O)N1 [Compound 70, (3R)—N-(3,4-difluorophenyl)-3-[(1R)-1-hydroxyethyl]-7-methyl-1,1-dioxo-2,3,4,5-tetrahydropyrrolo[3,4-f]thiazepine-6-carboxamide]	0.014	> 25
Cn1cc2c(c1C(=O)Nc1ccc(F)c(C#N)c1)OC[C@H](Cc1cccnc1)NS2(=O)=O [Compound 71, (3S)—N-(3-cyano-4-fluoro-phenyl)-7-methyl-1,1-dioxo-3-(3-pyridylmethyl)-3,4-dihydro-2H-pyrrolo[3,4-b][1,4,5]oxathiazepine-6-carboxamide]	0.003	> 25
Cn1cc2c(c1C(=O)Nc1ccc(F)c(F)c1)OCC(C1CCN(C(=O)OC(C)(C)C)CC1)NS2(=O)=O (stereo not shown) [Compound 72, tert-butyl 4-[6-[(3,4-difluorophenyl)carbamoyl]-7-methyl-1,1-dioxo-3,4-dihydro-2H-pyrrolo[3,4-b][1,4,5]oxathiazepin-3-yl]piperidine-1-carboxylate]	0.05	> 25
